In patent US9861102B2, “Methods for disinfection” (Markesbery Blue Pearl LLC, priority 2016, dated 2018):

Test system: Bacillus subtilis bacteria
Assay: Closed-system control experiments of peracid reactant compounds, percent kill
Format: cell-based
Conditions: for Percent Kill: B. subtilis agar plates, electrostatic spray, 2-micron thickness, concentrations as in Example 2, charge as indicated
Excerpt: The electrostatic spray device used was a Hurricane ES™ Portable Electrostatic Aerosol Applicator, modified to selectively impart either a positive, negative, or neutral charge when dispersing an aqueous composition containing a peracid reactant compound. In experiments where multiple aqueous compositions containing peracid reactant compounds were dispersed, the compositions were dispersed sequentially, and all aqueous compositions were dispersed with either a positive, negative, or neutral charge, as indicated below in Table 5. […] In all experiments, the percent by weight of distilled water was adjusted appropriately in response to the addition or deletion of a peracid reactant compound. […] Processing and handling of the agar plates containing the B. subtilis bacteria was conducted according to the procedure used in Example 3.

SMILES: OO [Exp 7, Hydrogen Peroxide]
- Percent Kill: 72%

SMILES: CCO [Exp 9, Ethanol]
- Percent Kill: 0%
- effect on bacterial growth (ethanol on its own): no effect

SMILES: CC(=O)O [Exp 8, Acetic Acid]
- Percent Kill: 6%
